# Data: patent US5955440A, “Macrolide LHRH antagonists” (Abbott Laboratories, priority 1998, dated 1999)
# Target: T1, LHRH rat pituitary receptor (Rattus norvegicus, UniProt P30969)
# T1 construct: from tissue; host or cells: rat pituitary
# T1 sequence (P30969 1-327): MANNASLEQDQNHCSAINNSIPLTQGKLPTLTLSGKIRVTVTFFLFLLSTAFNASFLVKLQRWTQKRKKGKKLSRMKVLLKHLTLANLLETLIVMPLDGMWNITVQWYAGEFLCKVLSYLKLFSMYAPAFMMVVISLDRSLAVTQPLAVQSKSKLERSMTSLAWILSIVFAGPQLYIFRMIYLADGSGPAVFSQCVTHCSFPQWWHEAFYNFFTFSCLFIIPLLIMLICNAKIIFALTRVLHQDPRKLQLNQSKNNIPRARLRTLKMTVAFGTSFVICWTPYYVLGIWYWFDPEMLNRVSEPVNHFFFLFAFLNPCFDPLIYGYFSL
# Assay: LHRH rat pituitary receptor binding (pKI)
# Conditions: negative logarithm of the equilibrium dissociation constants, Table 1
# Method: Representative compounds of the present invention were evaluated in in vitro tests for LHRH rat pituitary receptor binding (pKI) and for LH inhibition from rat pituitary cells for antagonist potency (pA2). The tests employed the methods detailed in F. Haviv, et al. J. Med. Chem., 32: 2340-2344 (1989). The receptor binding affinity (pKI) is the negative logarithm of the equilibrium dissociation constants.
row,receptor binding affinity (pKI),Compound
1,8.46,"CC[C@H]1OC(=O)[C@H](C)[C@@H](O[C@H]2C[C@@](C)(OC)[C@@H](O)[C@H](C)O2)[C@H](C)[C@@H](O[C@@H]2O[C@H](C)C[C@H](N(C)CCCCc3ccncc3)[C@H]2O)[C@](C)(OC)C[C@@H](C)C(=O)[C@H](C)[C@H]2N(CCc3ccc(F)c(Cl)c3)C(=O)O[C@]12C [Example 83, 3'-N-Desmethyl-3'-N-[4-(4-pyridyl)butyl]-11-deoxy-11-[carboxy-(3-chloro-4-fluorophenethylamino)]-6-O-methyl-erythromycin A 11,12-(cyclic carbamate)]"

# Same assay, conditions: negative logarithm of the equilibrium dissociation constants, Table 1, read-out: receptor binding affinity (pKI) (converted)
row,Compound,Ki [nM]
1,"CC[C@H]1OC(=O)[C@H](C)[C@@H](O[C@H]2C[C@@](C)(OC)[C@@H](O)[C@H](C)O2)[C@H](C)[C@@H](O[C@@H]2O[C@H](C)C[C@H](N(C)Cc3ccc(-c4ccc(Cl)cc4)o3)[C@H]2O)[C@](C)(OC)C[C@@H](C)C(=O)[C@H](C)[C@H]2N(CCc3ccc(Cl)c(Cl)c3)C(=O)O[C@]12C [Example 67, 3'-N-Desmethyl-3'-N-[5-(4-chlorophenyl)-2-furylmethyl]-11-deoxy-11-[carboxy-(3,4-dichlorophenethylamino)]-6-O-methyl-erythromycin A 11,12-(cyclic carbamate)]",7.76
2,"CC[C@H]1OC(=O)[C@H](C)[C@@H](O[C@H]2C[C@@](C)(OC)[C@@H](O)[C@H](C)O2)[C@H](C)[C@@H](O[C@@H]2O[C@H](C)C[C@H](N(C)Cc3ccc([N+](=O)[O-])o3)[C@H]2O)[C@](C)(OC)C[C@@H](C)C(=O)[C@H](C)[C@H]2N(CCc3ccc(Cl)c(Cl)c3)C(=O)O[C@]12C [Example 68, 3'-N-Desmethyl-3'-N-[5-nitro-2-furylmethyl]-11-deoxy-11-[carboxy-(3,4-dichlorophenethylamino)]-6-O-methyl-erythromycin A 11,12-(cyclic carbamate)]",5.13
3,"CC[C@H]1OC(=O)[C@H](C)[C@@H](O[C@H]2C[C@@](C)(OC)[C@@H](O)[C@H](C)O2)[C@H](C)[C@@H](O[C@@H]2O[C@H](C)C[C@H](N(C)CC3CC(OC)OC3OC)[C@H]2O)[C@](C)(OC)C[C@@H](C)C(=O)[C@H](C)[C@H]2N(CCc3ccc(Cl)c(Cl)c3)C(=O)O[C@]12C (stereo partly shown) [Example 69, 3'-N-Desmethyl-3'-N-[2,5-dimethoxy-3-tetrahydrofurylmethyl]-11-deoxy-11-[carboxy-(3,4-dichlorophenethylamino)]-6-O-methyl-erythromycin A 11,12-(cycliccarbamate)]",6.17
4,"CC[C@H]1OC(=O)[C@H](C)[C@@H](O[C@H]2C[C@@](C)(OC)[C@@H](O)[C@H](C)O2)[C@H](C)[C@@H](O[C@@H]2O[C@H](C)C[C@H](N(C)Cc3cccc(C)n3)[C@H]2O)[C@](C)(OC)C[C@@H](C)C(=O)[C@H](C)[C@H]2N(CCc3ccc(Cl)c(Cl)c3)C(=O)O[C@]12C [Example 70, 3'-N-Desmethyl-3'-N-[6-methyl-2-pyridylmethyl]-11-deoxy-11-[carboxy-(3,4-dichlorophenethylamino)]-6-O-methyl-erythromycin A 11,12-(cyclic carbamate)]",5.89
5,"CC[C@H]1OC(=O)[C@H](C)[C@@H](O[C@H]2C[C@@](C)(OC)[C@@H](O)[C@H](C)O2)[C@H](C)[C@@H](O[C@@H]2O[C@H](C)C[C@H](N(C)CCCC(F)(F)F)[C@H]2O)[C@](C)(OC)C[C@@H](C)C(=O)[C@H](C)[C@H]2N(CCc3ccc(Cl)c(Cl)c3)C(=O)O[C@]12C [Example 71, 3'-N-Desmethyl-3'-N-(4,4,4-trifluorobutyl)-11-deoxy-11-[carboxy-(3,4-dichlorophenethylamino)]-6-O-methyl-erythromycin A 11,12-(cyclic carbamate)]",6.17
6,"CC[C@H]1OC(=O)[C@H](C)[C@@H](O[C@H]2C[C@@](C)(OC)[C@@H](O)[C@H](C)O2)[C@H](C)[C@@H](O[C@@H]2O[C@H](C)C[C@H](N(C)Cc3ccc4ccccc4c3Br)[C@H]2O)[C@](C)(OC)C[C@@H](C)C(=O)[C@H](C)[C@H]2N(CCc3ccc(Cl)c(Cl)c3)C(=O)O[C@]12C [Example 72, 3'-N-Desmethyl-3'-N-(1-bromo-2-napthylmethyl)-11-deoxy-11-[carboxy-(3,4-dichlorophenethylamino)]-6-O-methyl-erythromycin A 11,12-(cyclic carbamate)]",0.676
7,"CC[C@H]1OC(=O)[C@H](C)[C@@H](O[C@H]2C[C@@](C)(OC)[C@@H](O)[C@H](C)O2)[C@H](C)[C@@H](O[C@@H]2O[C@H](C)C[C@H](N(C)Cc3ccc(C)c4ccccc34)[C@H]2O)[C@](C)(OC)C[C@@H](C)C(=O)[C@H](C)[C@H]2N(CCc3ccc(Cl)c(Cl)c3)C(=O)O[C@]12C [Example 73, 3'-N-Desmethyl-3'-N-(4-methyl-1-napthylmethyl)-11-deoxy-11-[carboxy-(3,4-dichlorophenethylamino)]-6-O-methyl-erythromycin A 11,12-(cyclic carbamate)]",0.214
8,"CC[C@H]1OC(=O)[C@H](C)[C@@H](O[C@H]2C[C@@](C)(OC)[C@@H](O)[C@H](C)O2)[C@H](C)[C@@H](O[C@@H]2O[C@H](C)C[C@H](N(C)Cc3ccc(N(C)C)c4ccccc34)[C@H]2O)[C@](C)(OC)C[C@@H](C)C(=O)[C@H](C)[C@H]2N(CCc3ccc(Cl)c(Cl)c3)C(=O)O[C@]12C [Example 74, 3'-N-Desmethyl-3'-N-(4-dimethylamino-1-napthylmethyl)-11-deoxy-11-[carboxy-(3,4-dichlorophenethylamino)]-6-O-methyl-erythromycin A 11,12-(cyclic carbamate)]",3.16
9,"CC[C@H]1OC(=O)[C@H](C)[C@@H](O[C@H]2C[C@@](C)(OC)[C@@H](O)[C@H](C)O2)[C@H](C)[C@@H](O[C@@H]2O[C@H](C)C[C@H](N(C)Cc3ccco3)[C@H]2O)[C@](C)(OC)C[C@@H](C)C(=O)[C@H](C)[C@H]2N(CCc3ccc(Cl)c(Cl)c3)C(=O)O[C@]12C [Example 75, 3'-N-Desmethyl-3'-N-(2-furylmethyl)-11-deoxy-11-[carboxy-(3,4-dichlorophenethylamino)]-6-O-methyl-erythromycin A 11,12-(cyclic carbamate)]",1.26

# Continued, values first:
row,Ki [nM],Compound
1,9.12,"CC[C@H]1OC(=O)[C@H](C)[C@@H](O[C@H]2C[C@@](C)(OC)[C@@H](O)[C@H](C)O2)[C@H](C)[C@@H](O[C@@H]2O[C@H](C)C[C@H](N(C)CCCc3ccncc3)[C@H]2O)[C@](C)(OC)C[C@@H](C)C(=O)[C@H](C)[C@H]2N(CCc3ccc(Cl)c(Cl)c3)C(=O)O[C@]12C [Example 76, 3'-N-Desmethyl-3'-N-[3-(4-pyridyl)propyl]-11-deoxy-11-[carboxy-(3,4-dichlorophenethylamino)]-6-O-methyl-erythromycin A 11,12-(cyclic carbamate)]"
2,6.17,"CC[C@H]1OC(=O)[C@H](C)[C@@H](O[C@H]2C[C@@](C)(OC)[C@@H](O)[C@H](C)O2)[C@H](C)[C@@H](O[C@@H]2O[C@H](C)C[C@H](N(C)CCCc3ccccn3)[C@H]2O)[C@](C)(OC)C[C@@H](C)C(=O)[C@H](C)[C@H]2N(CCc3ccc(Cl)c(Cl)c3)C(=O)O[C@]12C [Example 77, 3'-N-Desmethyl-3'-N-[3-(2-pyridyl)propyl]-11-deoxy-11-[carboxy-(3,4-dichlorophenethylamino)]-6-O-methyl-erythromycin A 11,12-(cyclic carbamate)]"
3,7.94,"CC[C@H]1OC(=O)[C@H](C)[C@@H](O[C@H]2C[C@@](C)(OC)[C@@H](O)[C@H](C)O2)[C@H](C)[C@@H](O[C@@H]2O[C@H](C)C[C@H](N(C)CCCCc3ccncc3)[C@H]2O)[C@](C)(OC)C[C@@H](C)C(=O)[C@H](C)[C@H]2N(CCc3ccc(Cl)c(Cl)c3)C(=O)O[C@]12C [Example 78, 3'-N-Desmethyl-3'-N-[4-(4-pyridyl)butyl]-11-deoxy-11-[carboxy-(3,4-dichlorophenethylamino)]-6-O-methyl-erythromycin A 11,12-(cyclic carbamate)]"
4,3.98,"CC[C@H]1OC(=O)[C@H](C)[C@@H](O[C@H]2C[C@@](C)(OC)[C@@H](O)[C@H](C)O2)[C@H](C)[C@@H](O[C@@H]2O[C@H](C)C[C@H](N(C)CCCc3cccnc3)[C@H]2O)[C@](C)(OC)C[C@@H](C)C(=O)[C@H](C)[C@H]2N(CCc3ccc(F)c(Cl)c3)C(=O)O[C@]12C [Example 80, 3'-N-Desmethyl-3'-N-[3-(3-pyridyl)propyl]-11-deoxy-11-[carboxy-(3-chloro-4-fluorophenethylamino)]-6-O-methyl-erythromycin A 11,12-(cyclic carbamate)]"
5,4.37,"CC[C@H]1OC(=O)[C@H](C)[C@@H](O[C@H]2C[C@@](C)(OC)[C@@H](O)[C@H](C)O2)[C@H](C)[C@@H](O[C@@H]2O[C@H](C)C[C@H](N(C)CCCc3ccncc3)[C@H]2O)[C@](C)(OC)C[C@@H](C)C(=O)[C@H](C)[C@H]2N(CCc3ccc(F)c(Cl)c3)C(=O)O[C@]12C [Example 81, 3'-N-Desmethyl-3'-N-[3-(4-pyridyl)propyl]-11-deoxy-11-[carboxy-(3-chloro-4-fluorophenethylamino)]-6-O-methyl-erythromycin A 11,12-(cyclic carbamate)]"
6,2.29,"CC[C@H]1OC(=O)[C@H](C)[C@@H](O[C@H]2C[C@@](C)(OC)[C@@H](O)[C@H](C)O2)[C@H](C)[C@@H](O[C@@H]2O[C@H](C)C[C@H](N(C)CCCc3ccccn3)[C@H]2O)[C@](C)(OC)C[C@@H](C)C(=O)[C@H](C)[C@H]2N(CCc3ccc(F)c(Cl)c3)C(=O)O[C@]12C [Example 82, 3'-N-Desmethyl-3'-N-[3-(2-pyridyl)propyl]-11-deoxy-11-[carboxy-(3-chloro-4-fluorophenethylamino)]-6-O-methyl-erythromycin A 11,12-(cyclic carbamate)]"
